For data set [1], the target named is T1, PltM (Pseudomonas protegens, UniProt Q4KCZ3). Type of data set: biochemical. To be noted: optimized conditions; for preference for bromination versus iodination: time course. The method, then:
To increase production of halogenated molecules and decrease the amount of NADPH required, the above in vitro assay was optimized by using an additional enzyme, glucose dehydrogenase (GDH). […] Conversion of the substrate to halogenated products was monitored by HPLC at λ=275-320 nm, where the absorbance of molecules is not affected by halogenation, and quantified as fraction of reaction species (%).
The time course experiments were performed in duplicate. […] The in vitro analysis of K87A mutant was performed overnight in 100 μL reaction mixture by using the compound 11 as a substrate. Wild-type PltM was used as a positive control, and no enzyme reaction was used as a negative control. In all above reactions, the compounds were extracted with EtOAc (4×100 μL) and dried under gentle air flow.
To determine the halogenation preference, the kinetic parameters were obtained by the global nonlinear regression analysis of all reaction species using DynaFit software for the following halogenation mechanism:
where E, S, P1, P2 are enzyme, substrate, mono- and dihalogenated product, respectively.

The target of data set [2] is T1, PltM. The data set is described as follows: Optimized in vitro PltM halogenation assay (PltM, SsuE, GDH), overnight overall yield by HPLC. Type of data set: biochemical. The note with it: for % overall conversion (trial 1) / % overall conversion (trial 2): optimized chlorination reaction, sum of all chlorinated products; for % overall conversion (trial 1): first of two independent reactions; for % overall conversion (trial 2): second of two independent reactions; for conversion upon overnight reaction: optimized conditions. On the procedure: To increase production of halogenated molecules and decrease the amount of NADPH required, the above in vitro assay was optimized by using an additional enzyme, glucose dehydrogenase (GDH). […] The overall yield of halogenation products was determined for reactions run overnight for several substrates (Table 8). Conversion of the substrate to halogenated products was monitored by HPLC at λ=275-320 nm, where the absorbance of molecules is not affected by halogenation, and quantified as fraction of reaction species (%).
The time course experiments were performed in duplicate. Compound 1 was unstable under these optimized conditions, and it was not tested. The in vitro analysis of K87A mutant was performed overnight in 100 μL reaction mixture by using the compound 11 as a substrate. Wild-type PltM was used as a positive control, and no enzyme reaction was used as a negative control. In all above reactions, the compounds were extracted with EtOAc (4×100 μL) and dried under gentle air flow.
(§1) The halogenation reaction products were analyzed by HPLC or LC-MS by injecting 10 μL of each sample. The compounds were separated by Reversed-phase HPLC at the flow rate of 0.2 mL/min by using the following program: eluent A=H2O; eluent B=MeCN; gradient=2% B for 5 min, increase to 100% B over a 30 min period, stay at 100% B for 9 min, decrease to 2% B over a 1 min period, and re-equilibrate the column at 2% B for 30 min.
(§2) For HPLC analysis, the molecules were observed by absorbance at λ=275 nm as described above. As necessary, the following mass spectrometer was operated in negative and positive modes with the following parameters: For negative mode, mass range, 80-600 m/z in profile mode; temperature, 550° C. and ion spray voltage floating, −4500 V, and for positive mode, mass range, 80-600 m/z in profile mode; temperature, 550° C. and ion spray voltage floating, 4500 V. The presence of each compound was analyzed by extracted ion chromatograph (XIC) with the expected mass ±0.05 Da for Assay 1 and Assay 2 and ±0.005 Da for Assay 3 (FIGS. 2A-C, 8-13, and 17-37; Tables 3-4 and 7).

The target in data set [3] is T1, PltM. Briefly: In vitro PltM halogenation assay with a single halide salt, substrate profile (Assay 1a-1d), LC-MS. In kind it is biochemical. The note with it: for iodination by PltM (products identified by LC-MS): NaI as halide source (Assay 1d); for chlorination by PltM (products identified by LC-MS): NaCl as halide source (Assay 1b). On the procedure: The halogenation assays were carried out similarly to a recently described procedure. For substrate profile determination (Assay 1), 100 μL reactions were carried out in 30 mM sodium phosphate pH 7.4. As a halide source, 200 mM of either NaF (Assay 1a), NaCl (Assay 1b), NaBr (Assay 1c), or NaI (Assay 1d) was used. To ensure that PltM is incapable of fluorinating, an additional 200 μL reaction with 300 mM NaF was run. A 200 μL reaction with 400 mM NaBr was also run to ensure no additional bromination reaction occurred. Each reaction also contained a specified substrate (0.5 mM), FAD (0.2 mM), NADPH (5 mM), PltM (5.5 μM), and SsuE (5.0 μM). The reactions were initiated by adding NADPH under N2. The reaction tubes were tightly closed to avoid contact with air. The reaction mixtures were incubated at 25° C. for 3 h prior to extraction with EtOAc (4×100 μL). The organic layer was dried by a gentle flow of air, and the residue was dissolved in MeOH to prepare 1-10 μg/mL samples for LC-MS analysis.
as §1, §2

Substrate in data set [4]: Nc1cccc(O)c1
Briefly: purified protein, by the assay type. The note with it: pH 7.4.

Substrate in data set [5]: Oc1ccc(Cl)c(O)c1
Briefly: purified protein, by the assay type. The note with it: other: halogen Cl; labelled species converted to next chlorinated product (for 16: to Cl-16a); pH 7.4.

Substrate in data set [6]: Oc1cccc(O)c1
Briefly: purified protein, by the assay type. In kind it is biochemical. To be noted: pH 7.4.

Substrate in data set [7]: OCc1cc(O)cc(O)c1
Briefly: purified protein, by the assay type. Type of data set: biochemical. The note with it: pH 7.4.

Substrate in data set [8]: OCc1cc(O)cc(O)c1Cl
Briefly: purified protein, by the assay type. Type of data set: biochemical. The note with it: other: halogen Cl; labelled species converted to next chlorinated product (for 16: to Cl-16a); pH 7.4.

Where [9] appears, read: other: halogen Br, 16/Br-16b (second mono-brominated product).
Where [10] appears, read: other: halogen Br, labelled species converted to next brominated product (for 16: to Br-16a).
The mark [11] stands for this setting: other: halogen Cl, 16/Cl-16b (second mono-chlorinated product).
The mark [12] stands for this setting: other: halogen Cl, labelled species converted to next chlorinated product (for 16: to Cl-16a).

The Km is the substrate concentration at which the rate is half of its maximum. As a reminder, the kcat is the number of substrate molecules converted per active site and unit of time at saturation. As usually defined, the kcat/Km is the second-order rate constant that governs catalysis at low substrate concentration.

`Oc1cccc(O)c1` [Compound 3]: at PltM [1], the “dibromination by PltM” value is “dibrominated” and the “preference for bromination versus iodination” value is “preference for bromination”. At PltM [2] (overnight), the “% overall conversion (trial 1)” value is reported as 100, 100% and the “% overall conversion (trial 2)” value was 100, 100%. Besides, the “conversion upon overnight reaction” value on PltM [2] came out at 100%.
For the molecule `Cc1cc(O)cc(O)c1` [Compound 9], on PltM [2] (overnight), the “% overall conversion (trial 1)” value was found to be 97% and the “% overall conversion (trial 2)” value is on record as 96%.
Consider `OCc1cc(O)cc(O)c1` [Compound 11], for which the “preference for bromination versus iodination” value at PltM [1] was “for iodination”. For the same molecule, at PltM [2] (overnight), the “% overall conversion (trial 1)” value is 100, 100% and the “% overall conversion (trial 2)” value is 100, 100%. Besides, the “conversion upon overnight reaction” value on PltM [2] is 100%. The “product with wild-type PltM” value on PltM [2] (overnight, conditions of the K87A analysis (positive control)) is listed as “yields diCl-11”. Besides, the “bromination by PltM (products identified by LC-MS)” value at PltM [3] (NaBr as halide source (Assay 1c)) is listed as “Mono-bromination of 11 was observed, but not dibromination”. In addition, the “fluorination by PltM (products identified by LC-MS)” value at PltM [3] (NaF as halide source (Assay 1a)) is “not dibromination or fluorination”.
On to `CC(=O)c1c(O)cc(O)cc1O` [Compound 15], for which, on PltM [2] (overnight), the “% overall conversion (trial 1)” value was 34% and the “% overall conversion (trial 2)” value is listed as 7%.
Regarding `Nc1cccc(O)c1` [Compound 16], on PltM [1], the “dibromination by PltM” value is given as “dibrominated” and the “preference for bromination versus iodination” value is on record as “preference for bromination”. In addition, on PltM [2] (overnight), the “% overall conversion (trial 1)” value is on record as 100, 100% and the “% overall conversion (trial 2)” value was 100, 100%. The “conversion upon overnight reaction” value at PltM [2] worked out at 100%.
Turning to `Nc1cccc(N)c1` [Compound 18], at PltM [2] (overnight), the “% overall conversion (trial 1)” value is given as 100, 100% and the “% overall conversion (trial 2)” value is on record as 100, 100%.
As to `N[C@@H](Cc1c[nH]c2ccccc12)C(=O)O` [Compound 20, L-Trp], the “halogenation by PltM (substrate profile)” value at PltM [3] (tested for chlorination and iodination) is recorded as “not observed”.
Regarding `CC(C)(C)NCC(O)c1cc(O)cc(O)c1` (centres unmarked) [Compound 21, terbutaline, reference compound], the “iodination by PltM (products identified by LC-MS)” value (“iodination by PltM” for short) at PltM [3] was “both mono and di”.
For `CC(Cc1ccc(O)cc1)NCC(O)c1cc(O)cc(O)c1` (centres unmarked) [Compound 22, fenoterol, reference compound], the “iodination by PltM” value at PltM [3] is “mono-iodinated”.
`Oc1ccc(C=Cc2cc(O)cc(O)c2)cc1` [Compound 23, resveratrol]: on PltM [2] (overnight), the “% overall conversion (trial 1)” value is 24% and the “% overall conversion (trial 2)” value is recorded as 20%. In addition, on PltM [3], the “chlorination by PltM (products identified by LC-MS)” value is “mono-chlorinated” and the “iodination by PltM” value is on record as “mono-iodinated”.
Regarding catechin [Compound 24], on PltM [3], the “chlorination by PltM (products identified by LC-MS)” value is on record as “mono-chlorinated” and the “iodination by PltM” value is listed as “mono-iodinated”.

B1: PltM (Pseudomonas protegens Pf-5) (protein)
chain: MNQYDVIIIGSGIAGALTGAVLAKSGLNVLILDSAQHPRFSVGEAATPESGFLLRLLSKRFDIPEIAYLSHPDKIIQHVGSSACGIKLGFSFAWHQENAPSSPDHLVAPPLKVPEAHLFRQDIDYFALMIALKHGAESRQNIKIESISLNDDGVEVALSNAAPVKAAFIIDAAAQGSPLSRQLGLRTTEGLATDTCSFFTHMLNVKSYEDALAPLSRTRSPIELFKSTLHHIFEEGWLWVIPFNNHPQGTNQLCSIGFQFNNAKYRPTEAPEIEFRKLLKKYPAIGEHFKDAVNAREWIYAPRINYRSVQNVGDRFCLLPQATGFIDPLFSRGLITTFESILRLAPKVLDAARSNRWQREQFIEVERHCLNAVATNDQLVSCSYEAFSDFHLWNVWHRVWLSGSNLGSAFLQKLLHDLEHSGDARQFDAALEAVRFPGCLSLDSPAYESLFRQSCQVMQQAREQARPVAETANALHELIKEHEAELLPLGYSRISNRFILKV
For the molecule B1, the Michaelis-Menten constant (Km) in data set [4] (setting [9]) is 151 ± 20 µM; in data set [4] (setting [10]), 151 ± 20 µM; in data set [4] (setting [11]), 1.1 ± 0.3 µM; in data set [4] (setting [12]), 1.1 ± 0.3 µM; in data set [5], 0.11 ± 0.02 µM; in data set [6] (setting [10]), 0.71 ± 0.2 µM. In addition, the Km entry in data set [6] (setting [12]) is “(7.6 ± 1.3) × 10^−2 μM”; in data set [7] (setting [10]), “(1.1 ± 0.2) × 10^3 μM”; in data set [7] (setting [12]), 8.4 ± 0.4 µM; in data set [8] it was 0.44 ± 0.02 µM. Moreover, the kcat in data set [4] (setting [9]) was 0.0367 s⁻¹; in data set [4] (setting [10]) it was 0.00783 s⁻¹; in data set [4] (setting [11]) it was 0.00367 s⁻¹; in data set [4] (setting [12]), 0.00583 s⁻¹; in data set [5], 0.00667 s⁻¹; in data set [6] (setting [10]), 0.0317 ± 0.00167 s⁻¹. The kcat in data set [6] (setting [12]) was 2.3 ± 0.1^a min^−1; in data set [7] (setting [10]) it was 0.004 ± 0.000333 s⁻¹; in data set [7] (setting [12]), 0.0267 ± 0.00167 s⁻¹; in data set [8], 0.003 ± 0.000167 s⁻¹. Further, the kcat/Km was 250 M⁻¹ s⁻¹ in data set [4] (setting [9]); 51.7 M⁻¹ s⁻¹ in data set [4] (setting [10]); 3170 M⁻¹ s⁻¹ in data set [4] (setting [11]); 5170 M⁻¹ s⁻¹ in data set [4] (setting [12]); 58300 M⁻¹ s⁻¹ in data set [5]; 45000 ± 10000 M⁻¹ s⁻¹ in data set [6] (setting [10]). Further, the kcat/Km in data set [6] (setting [12]) was 30 ± 5 ^ min^−1μM^−1; in data set [7] (setting [10]) it was 3.67 ± 0.333 M⁻¹ s⁻¹; in data set [7] (setting [12]) it was 3170 ± 167 M⁻¹ s⁻¹; in data set [8], 6830 ± 333 M⁻¹ s⁻¹.

Values taken from US20200299671A1, “IMMOBILIZED MULTI-ENZYMATIC HALOGENATION SYSTEM” (priority 2019, published 2020).
